Source: paper PMC8306933 (Molecules, 2021)
Like-named read-outs stand apart in the source and are kept apart here.

How the values were obtained:
MDA-MB-231 cells [1] = test: Cytotoxicity / cell viability (MTS assay), MDA-MB-231; assay type: cell-based; details: for IC50: Homo sapiens, TNBC cell line MDA-MB-231, read-out: IC50 cytotoxic activity MDA-MB-231; for reduction of the number of TNBC cells MDA-MB-231: after three days of treatment at IC50
Procedure: (§1) The human TNBC cell lines Hs578T and MDA-MB-231 were obtained from the American Type Culture Collection and cultured in Dulbecco’s Modified Eagle Medium (DMEM) supplemented with fetal bovine serum (FBS) (10% v/v), insulin (Hs578T cell only), and penicillin G/streptomycin 1% (v/v) at 37 °C under 5% CO2. The absence of culture contamination by Mycoplasma species was confirmed before the experiments.
(§2) The activity of the selected compounds on breast cancer cell viability were determined employing the MTS assay. Briefly, 5 × 10^3 cells were seeded in each well of a 96-well plate for 24 h, and growth medium containing different compounds was added and incubated in different periods. A total of 20 µL of the MTS kit was added to each well, and the cells were incubated for 2 h. After incubation, the absorbance was measured at 490 nm with an enzyme-linked immunosorbent assay microplate reader (BioTek Instruments, USA). The absorbance value is directly proportional to the number of living cells.

Hs578T cells [2] = test: Cytotoxicity / cell viability (MTS assay), Hs578T; assay type: cell-based; details: for IC50: Homo sapiens, Hs-578T, TNBC cell line Hs578T, read-out: IC50 cytotoxic activity Hs578T; for reduction of the number of TNBC cells Hs578T: after three days of treatment at IC50
Procedure: as §1, §2

[3] = biological target: T1, α-amylase from porcine pancreas (Sus scrofa, UniProt P00690); test: biochemical; assay type: biochemical
T1 construct: purchased Sigma-Aldrich (St. Louis, MO, USA); host or cells: porcine pancreas
T1 sequence (P00690 16-511): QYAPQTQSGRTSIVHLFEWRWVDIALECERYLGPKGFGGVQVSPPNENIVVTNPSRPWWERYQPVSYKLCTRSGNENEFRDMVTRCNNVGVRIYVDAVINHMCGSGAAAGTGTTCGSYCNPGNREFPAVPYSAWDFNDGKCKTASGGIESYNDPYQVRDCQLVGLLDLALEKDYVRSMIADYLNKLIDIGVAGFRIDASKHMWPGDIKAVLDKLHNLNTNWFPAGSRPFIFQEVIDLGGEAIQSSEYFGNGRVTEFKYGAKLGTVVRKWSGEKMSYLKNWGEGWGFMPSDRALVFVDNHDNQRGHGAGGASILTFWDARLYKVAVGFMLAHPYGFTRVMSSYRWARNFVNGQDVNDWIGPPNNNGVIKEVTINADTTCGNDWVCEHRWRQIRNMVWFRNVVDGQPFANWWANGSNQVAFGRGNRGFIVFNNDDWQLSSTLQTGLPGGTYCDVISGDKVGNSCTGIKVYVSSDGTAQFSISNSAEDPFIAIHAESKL
Excerpt: (§3) Trizma hydrochloride (Tris-HCl) and bovine serum albumin (BSA) were obtained from Sigma–Aldrich (Steinheim, Germany). Deionized water was produced using a Milli-Q water purification system (Millipore, Bedford, MA, USA). Dulbecco’s Modified Eagle Medium (DMEM) was collected from Gibco (Japan), and fetal bovine serum (FBS) was also collected from Gibco (Waltham, MA, USA). Insulin and penicillin G/streptomycin were collected from Wako (Fujifilm Wako Pure Chemical Corporation, Osaka, Japan), the MTS kit was collected from Promega (Madison, WI, USA), and poly-2-hydroxyethyl methacrylate was collected from Sigma-Aldrich (Taufkirchen, Germany).
α-Amylase inhibitory activity was determined following the starch-iodine method with some modifications. A 1% starch solution was prepared by 1 g of starch in 10 mL of distilled water following gentle boiling and cooling into 100 mL. A reaction mixture, 25 μL sample (0–1 mM) and 50 μL α-amylase (5 U/mL) in phosphate buffer, was incubated at 37 °C for 10 min. Afterwards, the starch (100 μL, 1% w/v) solution was added to the mixture and incubated again at 37 °C for 10 min. […] After adding the iodine/iodide solution, based on the colour change, the absorbance was monitored at 630 nm for 10 min. […] The percentage of inhibition was calculated and results were expressed as IC50 (µM).

[4] = biological target: T2, butyrylcholinesterase from equine serum (Equus caballus, UniProt P81908); test: BChE inhibition (Ellman's method); assay type: biochemical
T2 construct: purchased Sigma-Aldrich (St. Louis, MO, USA); host or cells: equine serum
Excerpt: as §3
(§4) The cholinesterase inhibitory (AChE/BChE) properties were ascertained based on Ellman’s method, as previously described. […] In the AChE inhibitory assay, 25 µL of sample solution (0–1 mM) along with 50 µL of buffer B (50 mM Tris-HCl, pH 8 containing 0.1% BSA), 125 µL of DTNB (3 mM), and 25 µL of 0.05 U/mL AChE were incubated at 37 °C for 10 min. After incubation, 25 µL of acetylthiocholine iodide (5 mM) as AChE substrate was incorporated to the solution. The BChE activity was determined following the same protocol using 25 µL of 5 mM S-butyrylthiocholine chloride as BChE substrate and 0.05 U/mL BChE as enzyme. […] The percentage of inhibition was calculated and the results were expressed as IC50 (µM).

[5] = biological target: T3, Acetylcholinesterase from electric eel (Electrophorus electricus, UniProt O42275); test: biochemical; assay type: biochemical
T3 construct: purchased Sigma-Aldrich (St. Louis, MO, USA) type VI-s; host or cells: electric eel
Excerpt: as §3, §4

MDA-MB-231 cells [6] = test: Transwell cell migration assay, MDA-MB-231; assay type: cell-based, human; details: at IC50; vs DMSO control
Procedure: as §1
(§5) The effects of the selected compounds on breast cancer cell migration were evaluated in transwell chambers according to a published protocol. Briefly, the Hs578T and MDA-MB-231 cells were treated with the tested compounds for 24 h, trypsinized, and washed twice with serum-free medium. Approximately 3 × 10^4 pretreated cells, suspended in 100 μL of the serum-free medium, were seeded to the upper chamber. The lower chambers were filled with approximately 500 μL of DMEM medium with 10% FBS and incubated for 12 h. After incubation, the cells from the upper surface were wiped off with cotton swabs, while the migrated cells on the opposite side of the transwell were washed twice with PBS, fixed with 4% paraformaldehyde, and finally stained with crystal violet solution. After 2 washes with water (Milli Q), several microscopic fields were taken randomly, and the migrated cells were counted using ImageJ software.

Hs578T cells [7] = test: Transwell cell migration assay, Hs578T; assay type: cell-based, human; details: at IC50; vs DMSO control
Procedure: as §1, §5

Hs578T cells [8] = test: Tumor-sphere formation assay, Hs578T; assay type: cell-based, human; details: in vitro tumor-sphere formation
Procedure: as §1
(§6) Three-dimensional or tumor-sphere culture is a recently introduced in vitro technique which maintains a physiological environment which closely resembles that of in vivo conditions. This technique has now been widely used for the screening of anticancer moieties. In vitro tumor-sphere formation assay was performed following a reported protocol. Briefly, approximately 3 × 10^3 cells were resuspended in a poly-2-hydroxyethyl methacrylate coated 6-well plate containing a sphere-forming medium with or without tested compounds and incubated for one week. The number of tumor spheres were counted, and the diameter of each tumor sphere was measured.

MDA-MB-231 cells [9] = test: Tumor-sphere formation assay, MDA-MB-231; assay type: cell-based, human; details: in vitro tumor-sphere formation
Procedure: as §1, §6

[10] = mean ± SD (n = 3), mammalian α-amylase
[11] = mean ± SD (n = 3), mammalian α-amylase, read-out: IC50 α-Amylase
[12] = mean ± SD (n = 3), tested 0–1 mM, read-out: IC50 BChE
[13] = mean ± SD (n = 3), tested 0–1 mM
[14] = mean ± SD (n = 3), tested 0–1 mM, read-out: IC50 AChE

T3 sequence (O42275 24-633): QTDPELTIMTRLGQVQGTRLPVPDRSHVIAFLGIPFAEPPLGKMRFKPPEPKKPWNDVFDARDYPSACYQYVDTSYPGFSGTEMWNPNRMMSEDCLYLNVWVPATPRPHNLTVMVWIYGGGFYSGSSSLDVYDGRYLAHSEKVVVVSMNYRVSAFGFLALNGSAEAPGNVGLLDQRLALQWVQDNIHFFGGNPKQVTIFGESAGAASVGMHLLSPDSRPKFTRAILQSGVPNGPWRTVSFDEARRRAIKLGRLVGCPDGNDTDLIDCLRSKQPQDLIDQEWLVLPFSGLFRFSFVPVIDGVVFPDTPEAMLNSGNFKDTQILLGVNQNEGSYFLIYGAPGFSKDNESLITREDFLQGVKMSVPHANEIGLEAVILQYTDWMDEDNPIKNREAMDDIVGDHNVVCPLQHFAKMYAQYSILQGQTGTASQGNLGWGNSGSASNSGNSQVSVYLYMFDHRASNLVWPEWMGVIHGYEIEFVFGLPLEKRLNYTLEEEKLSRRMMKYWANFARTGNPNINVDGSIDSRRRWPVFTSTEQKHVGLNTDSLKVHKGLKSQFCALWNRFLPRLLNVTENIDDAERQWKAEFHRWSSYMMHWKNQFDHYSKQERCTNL
T2 sequence (P81908 whole entry): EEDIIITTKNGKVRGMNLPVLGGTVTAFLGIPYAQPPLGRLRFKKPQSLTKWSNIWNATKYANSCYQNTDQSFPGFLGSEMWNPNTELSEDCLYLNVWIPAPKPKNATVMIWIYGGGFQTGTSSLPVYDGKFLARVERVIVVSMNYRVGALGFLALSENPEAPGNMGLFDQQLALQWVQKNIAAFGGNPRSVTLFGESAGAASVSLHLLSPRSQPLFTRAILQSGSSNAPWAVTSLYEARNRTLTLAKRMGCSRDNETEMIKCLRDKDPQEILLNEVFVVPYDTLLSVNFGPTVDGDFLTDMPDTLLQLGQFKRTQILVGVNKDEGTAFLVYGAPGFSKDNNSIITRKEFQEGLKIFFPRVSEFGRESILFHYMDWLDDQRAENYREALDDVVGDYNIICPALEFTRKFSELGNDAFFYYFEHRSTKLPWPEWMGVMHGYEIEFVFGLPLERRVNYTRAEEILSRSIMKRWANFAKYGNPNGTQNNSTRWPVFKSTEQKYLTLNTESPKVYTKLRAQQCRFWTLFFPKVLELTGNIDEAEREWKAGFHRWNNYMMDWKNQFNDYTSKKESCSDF

Row | Compound | IC50 (MDA-MB-231 cells [1]) [µM] | IC50 (Hs578T cells [2]) [µM] | IC50 [3] [µM] | IC50 [4] [µM] | IC50 [5] [µM] | reduction of the number of TNBC cells MDA-MB-231 (MDA-MB-231 cells [1]) [%] | reduction of the number of TNBC cells Hs578T (Hs578T cells [2]) [%] | inhibition of migration of MDA-MB-231 (MDA-MB-231 cells [6]) [%] | inhibition of migration of Hs578T cell (Hs578T cells [7]) [%] | IC50 α-Amylase [3, 10] | IC50 [3, 11] [µM] | IC50 [4, 12] [µM] | IC50 AChE [5, 13] | IC50 [5, 14] [µM] | tumor-sphere size and number, Hs578T (Hs578T cells [8]) | tumor-sphere size and number, MDA-MB-231 (MDA-MB-231 cells [9])
1 | CC1=C(CO)[C@@H]2CC(=O)c3cc(C[C@@H](C)O)c(O[C@@H]4O[C@@H](CO)C(O)[C@H](O)[C@@H]4O[C@@H]4O[C@H](CO)[C@@H](O)[C@H](O)[C@@H]4O)c(O)c3[C@@]2(C)CC1 (stereo partly drawn) [Compound 1, (5R,10S,16R)-11,16,19-trihydroxy-12-O-β-D-glucopyranosyl-(1→2)-β-D-glucopyranosyl-17(15→16),18(4→3)-diabeo-3,8,11,13-abietatetraene-7-one] | 122 ± 1.2 | 128 ± 2.2 | 18.5 ± 0.6 | > 1000 | 191 ± 10.2 | – | – | – | – | – | – | – | – | – | – | –
2 | CC1=C(C(=O)O)C2CC(=O)c3cc(CC(C)O)c(OC4OC(CO)C(O)C(O)C4OC4OC(CO)C(O)C(O)C4O)c(O)c3C2(C)CC1 [Compound 2, (5R,10S,16R)-11,16-dihydroxy-12-O-β-D-glucopyranosyl-(1→2)-β-D-glucopyranosyl-17(15→16),18(4→3)-diabeo-4-carboxy-3,8,11,13-abietatetraene-7-one] | – | – | 64.6 ± 7.1 | > 1000 | 139 ± 7.2 | – | – | – | – | – | – | – | – | – | – | –
3 | CC1=CC(=O)CC(C)(C)[C@H]1CC[C@@H](C)O[C@@H]1O[C@H](CO)[C@@H](O)[C@H](O)[C@H]1O [Compound 3, byzantionoside B] | 118 ± 3.3 | 94.7 ± 1.3 | – | – | – | 48 | 44 | 40 | 50 | almost inactive | 284 ± 13.2 | > 1000 | no inhibitory activity | > 1000 | – | –
4 | O=C(O)C[C@H]1CCC(=O)[C@@H]1C/C=C\CCO[C@@H]1O[C@H](COC(=O)/C=C/c2ccc(O)c(O)c2)[C@@H](O)[C@H](O)[C@H]1O [Compound 4, 6′-O-caffeoyl-12-glucopyranosyloxyjasmonic acid] | 199 ± 3.1 | 210 ± 5.1 | – | – | – | – | – | – | – | – | 13 ± 1.3 | > 1000 | no inhibitory activity | > 1000 | – | –
5 | CC1OC(OC2C(O)C(OCCc3ccccc3)OC(CO)C2OC(=O)C=Cc2ccc(O)c(O)c2)C(O)C(O)C1O (stereo not drawn) [Compound 5, jionoside C] | 96.5 ± 1.5 | 85.3 ± 2.4 | – | – | – | 43 | 42 | 37 | 43 | – | 24.9 ± 0.4 | > 1000 | – | 160 ± 12.2 | reduced the cell size (Figure 5A,C) and the cell number significantly | reduced the cell size (Figure 5A,C) and the cell number significantly
6 | COc1ccc(CCO[C@@H]2O[C@H](CO)[C@@H](OC(=O)/C=C/c3ccc(O)c(O)c3)[C@H](O[C@@H]3O[C@@H](C)[C@H](O)[C@@H](O)[C@H]3O)[C@H]2O)cc1O [Compound 6, jionoside D] | – | – | – | – | – | – | – | – | – | – | 3.4 ± 0.2 | > 1000 | no inhibitory activity | > 1000 | – | –
7 | COc1ccc(CCO[C@@H]2O[C@H](CO)[C@@H](OC(=O)/C=C/c3ccc(O)c(O)c3)[C@H](O[C@@H]3O[C@@H](C)[C@H](O)[C@@H](O)[C@H]3O)[C@H]2O)cc1OC [Compound 7, brachynoside] | – | – | – | – | – | – | – | – | – | almost inactive | 221 ± 24.5 | > 1000 | no inhibitory activity | > 1000 | – | –
8 | COc1cc(/C=C/C(=O)O[C@H]2[C@H](O[C@@H]3O[C@@H](C)[C@H](O)[C@@H](O)[C@H]3O[C@@H]3O[C@H](CO)[C@@H](O)[C@H](O)[C@H]3O)[C@@H](O)[C@H](OCCc3ccc(O)c(O)c3)O[C@@H]2CO)ccc1O [Compound 8, incanoside C] | – | – | – | – | – | – | – | – | – | – | 19.8 ± 0.5 | > 1000 | – | 178 ± 11.3 | – | –
